Source: patent publication US8106055B2, “Substituted amide compounds” (Gruenenthal GmbH, priority 2007, dated 2012)

What was measured:
[1] = target: T1, serotonin (5-HT) reuptake (Rattus norvegicus, UniProt P31652); experiment: Inhibition of serotonin (5HT) reuptake in synaptosomes from rat brain; assay type: biochemical; details: Table 2, test concentration 10 μM; for inhibition at 10 µM: read-out: 5-HT reuptake
T1 construct: synaptosomes are freshly isolated from areas of the rat brain; from tissue; host or cells: rat brain synaptosomes (P2 fraction)
Summary of the method: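 Freshly isolated rat brain synaptosomes (P2 fraction) used for 5-HT reuptake. Test compound at 10 μM, activity given as % inhibition.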

[2] = target: T2, human bradykinin 1 receptor (B1R) (Homo sapiens, UniProt P46663); experiment: Functional investigation on the human bradykinin 1 receptor (B1R), Ca2+ FLIPR assay in CHO K1 hB1R cells; assay type: cell-based; details: test substance 10 μM, Ca2+ FLIPR, CHO K1 hB1R cells; for B1R Ant. h [10 μM] % Inhibition: B1R antagonism human
T2 construct: expressed in transfected cells; host or cells: CHO K1 cells
T2 sequence (P46663 1-353): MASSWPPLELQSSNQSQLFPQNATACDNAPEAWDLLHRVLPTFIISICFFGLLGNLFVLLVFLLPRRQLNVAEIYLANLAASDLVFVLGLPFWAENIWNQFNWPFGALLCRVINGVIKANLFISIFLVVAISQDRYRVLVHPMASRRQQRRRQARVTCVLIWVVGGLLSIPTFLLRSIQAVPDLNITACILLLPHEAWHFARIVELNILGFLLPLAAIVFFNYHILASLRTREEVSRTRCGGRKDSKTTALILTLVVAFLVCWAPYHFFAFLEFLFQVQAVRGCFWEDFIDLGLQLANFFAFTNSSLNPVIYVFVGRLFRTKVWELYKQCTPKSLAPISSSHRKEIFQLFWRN
Summary of the method: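 Cells were dye-loaded with Fluo-4 plus probenecid, then test substances added and Ca2+ influx compared with agonist control for % activation. After 10-20 min, EC80 agonist (Lys-Des-Arg9-bradykinin human; Des-Arg9-bradykinin rat) was applied; suppression gave % inhibition and IC50 values.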

T1 sequence (P31652 whole entry): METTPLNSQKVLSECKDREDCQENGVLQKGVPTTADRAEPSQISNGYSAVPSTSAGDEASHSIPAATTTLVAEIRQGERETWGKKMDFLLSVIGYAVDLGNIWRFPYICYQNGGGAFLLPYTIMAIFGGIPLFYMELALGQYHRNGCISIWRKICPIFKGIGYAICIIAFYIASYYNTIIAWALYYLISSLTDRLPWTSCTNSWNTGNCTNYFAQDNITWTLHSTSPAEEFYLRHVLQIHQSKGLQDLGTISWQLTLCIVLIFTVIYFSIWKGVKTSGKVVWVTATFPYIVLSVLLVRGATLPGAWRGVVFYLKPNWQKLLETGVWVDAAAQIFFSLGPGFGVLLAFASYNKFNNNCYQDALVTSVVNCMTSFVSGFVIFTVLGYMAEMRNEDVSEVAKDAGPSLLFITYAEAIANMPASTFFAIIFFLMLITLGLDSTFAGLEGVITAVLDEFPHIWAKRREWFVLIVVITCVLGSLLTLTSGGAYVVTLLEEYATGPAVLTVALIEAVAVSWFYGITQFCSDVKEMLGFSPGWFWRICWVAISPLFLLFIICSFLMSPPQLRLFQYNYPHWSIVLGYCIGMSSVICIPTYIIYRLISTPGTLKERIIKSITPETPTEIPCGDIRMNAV

SMILES	5-HT reuptake [1]	B1R Ant. h [10 μM] % Inhibition [2]	inhibition at 10 µM [1]	inhibition at 10 µM ([2]; CHO-K1, B1R antagonism human, read-out: B1R Ant. h [10 μM] % Inhibition)
CN(C)C(c1ccccc1)C1CCC(NC(=O)COCC2CCCN2S(=O)(=O)c2c(Cl)cc(Cl)cc2Cl)CC1 (stereo not drawn) [Example 613, N-[4-(Dimethylaminophenylmethyl)-cyclohexyl]-2-[1-(2,4,6-trichlorobenzenesulfonyl)-pyrrolidin-2-ylmethoxy]-acetamide]	62 % inhibition	66%	–	–
CN(C)C(c1ccccc1)C1CCC(CNC(=O)COCCN(C)S(=O)(=O)c2c(Cl)cc(Cl)cc2Cl)CC1 (stereo not drawn) [Example 614, N-[4-(dimethylaminophenylmethyl)-cyclohexylmethyl]-2-{2-[(2,4,6-trichlorobenzenesulfonyl)-methylamino]-ethoxy}-acetamide]	–	102%	90%	–
CN(C)C(c1ccccc1)C1CCC(NC(=O)COCCN(C)S(=O)(=O)c2c(Cl)cc(Cl)cc2Cl)C1 (stereo not drawn) [Example 615, N-[3-(dimethylaminophenylmethyl)-cyclopentyl]-2-{2-[(2,4,6-trichlorobenzenesulfonyl)-methylamino]-ethoxy}-acetamide]	–	–	81%	95%
